Experimental data taken from patent US10457710B2, “Antimicrobial peptides, their variants and uses” (priority 2015, dated 2019).

Experiments:
Assay in all cases: MIC, microdilution, clinical strains
Assay type in all cases: cell-based
[1] = test system: clinical strains of A. johnsonii; parameters: unit: μg/ml; settings: Acinetobacter johnsonii strain 1, Muller Hinton broth-cation adjusted, 0.02% BSA, 0.2% acetic acid
Description: (§1) Minimum inhibition concetrations (MICs) were determined against Escherichia coli (ATCC 25922), Staphylococcus aureus (ATCC 25923), Klebsiella pneumoniae (ATCC 10031) and Pseudomonas aeruginosa (ATCC 27853). Also clinical strains of E. coli, K. pneumoniae, E. cloacae, P. aeruginosa, Serratia marcescens, Proteus mirabilis, S. pneumoniae, Acinetobacter baumannii, A. johnsonii and S. aureus were used for MICs assays. Additionally, clinical strains of yeast including Candida albicans, C. glabrata, C. parapsilosis and C. quillermondiae were used. The susceptibility of these microorganisms to Chain peptides were determined using micro broth dilution assay. Colonies of the respective microorganism from Muller Hinton (MH) agar plates incubated overnight were suspended in MH broth media and final concentration of microorganism was adjusted to 5.0×10^5 cfu/ml. An aliquot of 10 μl of each Chain peptide, or gentamicin, tetracycline as reference antibiotics were added in differing concentrations along with 90 μl of bacterial suspension to 96 well polypropylene plates and incubated at 37° C. for 20 to 24 hours. Concentrations of Chain peptides and reference antibiotics ranged from 0.125 to 128 μg/ml and the MICs were recorded as the lowest concentration with no visual growth of bacteria. Similarly, antifungal MICs were tested in Potato dextrose broth.
(§2) Clinical strains of yeasts including Candida albicans, C. glabrata, C. parapsilosis and C. quillermondiae were also tested with the 12 Chain peptides. The minimum inhibitory concentration (MICs) varied between these peptides and are presented in Tables 4a, 4b, 4c and 5a, 5b, 5c. Peptides Chain 105, 201 and 308 are broad spectrum antimicrobials with MICs between 0.5-32 μg/ml against all the bacteria and yeasts tested, except Serratia marcescens and Proteus mirabilis, against which the MICs were between 64-128 μg/ml. Peptide Chain 306 has narrow spectrum activity against E. coli at 1 μg/ml and for the rest of the bacterial strains at >32 μg/ml (FIG. 10c).

[2] = test system: clinical strains of Acinetobacter baumannii; parameters: unit: μg/ml; settings: 0.02% BSA, 0.2% acetic acid
Description: as §1, §2

[3] = test system: clinical strains of P. aeruginosa; settings: 0.02% BSA, 0.2% acetic acid
How it was run: (§3)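 Overnight MH agar colonies were suspended in MH broth to 5.0×10^5 cfu/ml, mixed with serial peptide dilutions (0.125–128 μg/ml) and incubated at 37° C for 20 to 24 hours. Yeast MICs were run the same way in potato dextrose broth, and wells were scored visually.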

[4] = test system: clinical strains of Serratia marcescens; settings: 0.02% BSA, 0.2% acetic acid
How it was run: as §3

[5] = test system: clinical strains of E. cloacae; settings: 0.02% BSA, 0.2% acetic acid
How it was run: as §3

[6] = test system: clinical strains of E. coli; settings: microdilution, Muller Hinton broth-cation adjusted, 0.02% BSA, 0.2% acetic acid
How it was run: as §3

[7] = test system: clinical strains of Proteus mirabilis; settings: 0.02% BSA, 0.2% acetic acid
How it was run: as §3

[8] = test system: clinical strains of K. pneumoniae; settings: 0.02% BSA, 0.2% acetic acid
How it was run: as §3

[9] = test system: clinical strains of S. aureus; settings: 0.02% BSA, 0.2% acetic acid
How it was run: as §3

[10] = test system: clinical strains of S. pneumoniae; settings: 0.02% BSA, 0.2% acetic acid
How it was run: as §3

Measured: Minimum inhibitory concentration

Gentamicin [reference compound]
0.5: [2]; Acinetobacter baumannii strain 1, Muller Hinton broth-cation adjusted | [2]; Acinetobacter baumannii strain 3, Muller Hinton broth-cation adjusted | [2]; Acinetobacter baumannii strain 4, Muller Hinton broth-cation adjusted | [3]; Pseudomonas aeruginosa strain 2, Muller Hinton broth-cation adjusted | [3]; Pseudomonas aeruginosa strain 3, Muller Hinton broth-cation adjusted | [3]; Pseudomonas aeruginosa strain 4, Muller Hinton broth-cation adjusted | [6]; Escherichia coli strain 1 | [6]; Escherichia coli strain 2 | [9]; Staphylococcus aureus strain 1, Muller Hinton broth-cation adjusted | [9]; Staphylococcus aureus strain 2, Muller Hinton broth-cation adjusted | [9]; Staphylococcus aureus strain 3, Muller Hinton broth-cation adjusted | [9]; Staphylococcus aureus strain 4, Muller Hinton broth-cation adjusted | [9]; Staphylococcus aureus strain 5, Muller Hinton broth-cation adjusted
1: [3]; Pseudomonas aeruginosa strain 1, Muller Hinton broth-cation adjusted | [4]; Serratia marcescens strain 1, Muller Hinton broth-cation adjusted | [4]; Serratia marcescens strain 3, Muller Hinton broth-cation adjusted | [4]; Serratia marcescens strain 4, Muller Hinton broth-cation adjusted | [4]; Serratia marcescens strain 5, Muller Hinton broth-cation adjusted | [6]; Escherichia coli strain 3 | [6]; Escherichia coli strain 4 | [6]; Escherichia coli strain 5 | [10]; Streptococcus pneumoniae strain 5, Muller Hinton broth-cation adjusted
8: [7]; Proteus mirabilis strain 4, Muller Hinton broth-cation adjusted
>128: [7]; Proteus mirabilis strain 3, Muller Hinton broth-cation adjusted | [7]; Proteus mirabilis strain 5, Muller Hinton broth-cation adjusted
4: [8]; Klebsiella pneumoniae strain 5, Muller Hinton broth-cation adjusted
2: [4]; Serratia marcescens strain 2, Muller Hinton broth-cation adjusted | [7]; Proteus mirabilis strain 1, Muller Hinton broth-cation adjusted | [7]; Proteus mirabilis strain 2, Muller Hinton broth-cation adjusted | [8]; Klebsiella pneumoniae strain 1, Muller Hinton broth-cation adjusted | [8]; Klebsiella pneumoniae strain 3, Muller Hinton broth-cation adjusted | [8]; Klebsiella pneumoniae strain 4, Muller Hinton broth-cation adjusted | [10]; Streptococcus pneumoniae strain 1, Muller Hinton broth-cation adjusted | [10]; Streptococcus pneumoniae strain 2, Muller Hinton broth-cation adjusted | [10]; Streptococcus pneumoniae strain 3, Muller Hinton broth-cation adjusted | [10]; Streptococcus pneumoniae strain 4, Muller Hinton broth-cation adjusted
0.25: [1] | [2]; Acinetobacter baumannii strain 2, Muller Hinton broth-cation adjusted | [2]; Acinetobacter baumannii strain 5, Muller Hinton broth-cation adjusted | [3]; Pseudomonas aeruginosa strain 5, Muller Hinton broth-cation adjusted | [5]; Enterobacter cloacae strain 1, Muller Hinton broth-cation adjusted | [5]; Enterobacter cloacae strain 2, Muller Hinton broth-cation adjusted | [5]; Enterobacter cloacae strain 3, Muller Hinton broth-cation adjusted | [5]; Enterobacter cloacae strain 4, Muller Hinton broth-cation adjusted | [5]; Enterobacter cloacae strain 5, Muller Hinton broth-cation adjusted | [8]; Klebsiella pneumoniae strain 2, Muller Hinton broth-cation adjusted
